Reference: patent publication EP0944629B1, “BIARYL-PYRIDOQUINAZOLINONE DERIVATIVES AS ANTI-CANCER AGENTS” (American Cyanamid Company, priority 1996, dated 1998)
Converted amounts (≈) assume the structure as drawn. Like-named read-outs stand apart in the source and are kept apart here.

Columns and labels:
A2780 DDP = assay: two cell line test procedure (sulforhodamine B cytotoxicity), A2780 DDP; format: cell-based; conditions: A2780 DDP (cisplatin-resistant) cells, 48 hours exposure
Protocol: (§1) A2780 S and A2780 DDP cells [Biochemical and Molecular Properties of Cisplatin-resistant A2780 Cells Grown in Folinic Acid; Y. Lu, J. Hnan, and K. Scanlon, J. Biol. Chem., 263, 4891-4894, 1988.] are grown in RPMI 1640 medium containing 5% fetal calf serum, 50 µg/ml streptomycin, 50 units/ml penicillin, 50 µg/ml gentamycin, 0.03% L-glutamine, 1 nM estradiol, 1 nM testosterone, 5 µg/mlinsulin, 5 µg/ml transferrin, and 5 ng/ml selenous acid, at 37°C, in a humidified atmosphere, containing 5% CO2. Experiments are done in the same media.
(§2) Cells are plated at the concentration of 5 x 10^4/ml on Day 0 of the experiment. On Day one control cells are fixed with trichloroacetic acid and 5 ten fold dilutions of tested compounds are added, in duplicates, to the remaining cells. On Day 3 (48 hours exposure to drugs) all cells are fixed with trichloroacetic acid, stained with 0.4% sulforhodamine B, and absorbency is read at 520 nm. The IC50s (concentration causing 50% inhibition) are determined for each drug.

A2780 S = assay: two cell line test procedure (sulforhodamine B cytotoxicity), A2780 S; format: cell-based; conditions: A2780 S cells, 48 hours exposure
Protocol: as §1, §2

P388 [1] = assay: Murine P388 Leukemia; format: in vivo, CD2F1 mice
Protocol: (§3) CD2F1 mice are injected i.p. with 1 x 10^6 tumor cells on Day 0 of the test. Drugs are administered i.p. on Days 1, 5, and 9 after the tumor implantation. Positive drug response is indicated by a more than 25% increase in the mean life span (% ILS), relative to placebo treated controls. Drugs are considered to be toxic when the mean life span of the drug treated animals is more than 15% shorter than placebo treated controls.

COLON 26 = assay: Murine Colon 26 Advanced, Metastatic Tumor; format: in vivo, CD2F1 mice
Protocol: as §3, with “with 5” for “with 1”, “x 10^5” for “x 10^6”, “test. […]” for “test. Drugs are administered i.p. on Days 1, 5, and 9 after the tumor implantation.”, “be toxic,” for “be toxic”

LS174T = conditions: days 1,5,9
Protocol: Human tumor fragments are implanted s.c. in athymic nude mice. Tumors are allowed to grow until they attain a mass of 100-150 mgs. […] Drugs are administered i.p. at Days 1, 5, and 9. Each mouse tumor mass is determined every 7 days, until Day 28, using caliper measurements of tumor length and width. Mean tumor mass for each group of animals is then calculated and the relative tumor growth determined. The relative tumor growth is defined as a ratio of the tumor mass on a given day to a tumor mass on Day 0. Calculation of % T/C (the relative tumor growth of treated group divided by the relative tumor growth of placebo group, multiplied by 100) is made for each day of measurement. A positive drug response is indicated by a % T/C value below 60%, and a p value in the Student t-test of less than 0.05. More than 20% deaths in the group related to the drug administration indicates toxicity.

[2] = reported by Denny et al.; cited from earlier work
[3] = reported by Denny et al.; cited from earlier work; remark: listed apart in the source
P388 [4] = conditions: reported by Denny et al.; cited from earlier work
[5] = P388, 50 mg/kg i.p., days 1,5,9
[6] = P388, 100 mg/kg i.p., days 1,5,9
[7] = P388, 200 mg/kg i.p., days 1,5,9
[8] = COLON 26, 200 mg/kg i.p., days 5,9,13

Row | Structure (SMILES) | IC50 (µg/ml) A2780 DDP (A2780 DDP) [µg/mL] | IC50 (µg/ml) A2780 S (A2780 S) [µg/mL] | also measured
1 | CN(C)CCNC(=O)c1cccn2c(=O)c3cc(-c4cc5ccccc5c5ccccc45)ccc3nc12 [Example 16] | 5.30 (≈ 10.9 µM) | 4.10 (≈ 8.43 µM) | –
2 | COc1ccc(-c2ccc3nc4c(C(=O)NCCN(C)C)cccn4c(=O)c3c2)cc1 [Example 19, 11H-Pyrido[2,1-b]quinazoline-6-carboxamide, N-[2-(dimethylamino)ethyl]-2-(4-methoxyphenyl)-11-oxo] | 3.40 (≈ 8.16 µM) | 4.30 (≈ 10.3 µM) | % ILS (P388 [1]; [5]): -9%; % ILS (P388 [1]; [6]): +4%; % ILS (P388 [1]; [7]): +6%
3 | CN(C)CCNC(=O)c1cccn2c(=O)c3cc(-c4cccc5ccccc45)ccc3nc12 [Example 17, 11H-pyrido[2,1-b)quinazoline-6-carboxamide, N-[2-(dimethylamino)ethyl]-2-(1-naphthalenyl)-11-oxo] | 4.70 (≈ 10.8 µM) | 4.60 (≈ 10.5 µM) | –
4 | Cl.Cl.O=C(NCCNCCO)c1cccn2c(=O)c3cc(-c4ccccc4)ccc3nc12 [Example 26, 11H-pyrido[2,1-b]quinazoline-6-carboxamide, N-[2-[(2-hydroxyethyl)amino]-ethyl]-11-oxo-2-phenyl, dihydrochloride] | 3.50 | 0.80 | –
5 | CN(C)CCNC(=O)c1cccn2c(=O)c3cc(-c4cccc(N)c4)ccc3nc12 [Example 13, 11H-Pyrido[2,1-b]quinazoline-6-carboxamide, 2-(3-aminophenyl)-N-[2-(dimethyl-amino)ethyl]-11-oxo] | 3.70 (≈ 9.22 µM) | 0.40 (≈ 0.996 µM) | % ILS (COLON 26; COLON 26, 100 mg/kg i.p., days 5,9,13): +18%; % ILS (COLON 26; [8]): +24%; % ILS (COLON 26; COLON 26, 250 mg/kg i.p., days 5,9,13): +35%; % ILS (P388 [1]; [5]): +2%; % ILS (P388 [1]; [6]): +20%; % ILS (P388 [1]; [7]): +57%; %T/C (LS174T; 250 mg/kg i.p.): 59 %T/C; %T/C (LS174T; 300 mg/kg i.p.): 44 %T/C
6 | CC[C@]1(O)C[C@H]2CN(CCc3c([nH]c4ccccc34)[C@@](C(=O)OC)(c3cc4c(cc3OC)N(C=O)[C@H]3[C@@](O)(C(=O)OC)[C@H](OC(C)=O)[C@]5(CC)C=CCN6CC[C@]43[C@@H]65)C2)C1 [Vincristine, reference compound] | – | – | % ILS (P388 [1]; P388, 0.8 mg/kg i.p., days 1,5,9): +114%; %T/C (LS174T; 1.0 mg/kg i.p.): 52 %T/C
7 | Cl.Cl.Cl.Nc1ccccc1-c1ccc2nc3c(C(=O)NCCNCCO)cccn3c(=O)c2c1 [Example 30, 11H-Pyrido[2,1-b]quinazoline-6-carboxamide, 2-(2-aminophenyl)-N-[2-[(2-hydroxyethyl)amino]ethyl]-11-oxo-trihydrochloride] | 6.90 | 4.80 | –
8 | CN(C)CCNC(=O)c1cccn2c(=O)c3cc(-c4cccc(-c5ccccc5)c4)ccc3nc12 [Example 15, 11H-Pyrido[2,1-b]quinazoline-6-carboxamide, 2-[1,1'-biphenyl]-3-yl-N-[2-(dimethylamino)ethyl]-11-oxo] | 0.80 (≈ 1.73 µM) | 0.60 (≈ 1.3 µM) | % ILS (P388 [1]; [5]): +8%; % ILS (P388 [1]; [6]): +2%; % ILS (P388 [1]; P388, 200 mg/kg i.p., days 1,5): -40%
9 | CN(C)CCNC(=O)c1cccn2c(=O)c3cc(-c4cccc(C(F)(F)F)c4)ccc3nc12 [Example 18] | 4.20 (≈ 9.24 µM) | 1.10 (≈ 2.42 µM) | –
10 | CN(C)CCNC(=O)c1cccn2c(=O)c3cc(-c4ccccc4-c4ccccc4)ccc3nc12 [Example 14, 11H-Pyrido[2,1-b]quinazoline-6-carboxamide, 2-[1,1'biphenyl]-2-yl-N-[2-(dimethylamino)ethyl]-11-oxo] | 4.80 (≈ 10.4 µM) | 4.40 (≈ 9.51 µM) | –
11 | CN(C)CCNC(=O)c1cccn2c(=O)c3ccccc3nc12 [I, N-[2-(dimethylamino)ethyl]-11-oxo-11H-pyrido[2,1-b]quinalzoline-6-carboxamide] | – | – | in vitro activity [2]: some in vitro activity; mutagenic activity [3]: mutagenic activity; activity in a P388 mouse model (P388 [4]): inactive
12 | Cl.Cl.Cl.Nc1cccc(-c2ccc3nc4c(C(=O)NCCNCCO)cccn4c(=O)c3c2)c1 [Example 24, 11H-Pyrido [2,1-b]quinazoline-6-carboxamide, 2-(3-aminophenyl)-N-[2-[(2-hydroxyethyl)amino]ethyl]-11-oxo-trihydrochloride] | 2.10 | 0.60 | % ILS (COLON 26; [8]): +24%; % ILS (COLON 26; COLON 26, 300 mg/kg i.p., days 5,9,13): -24%; % ILS (P388 [1]; P388, 25 mg/kg i.p., days 1,5,9): +12%; % ILS (P388 [1]; [5]): +4%; % ILS (P388 [1]; [6]): +4%; % ILS (P388 [1]; [7]): 0%
13 | CN(C)CCNC(=O)c1cccn2c(=O)c3cc(-c4cc(C(F)(F)F)cc(C(F)(F)F)c4)ccc3nc12 [Example 20, 11H-Pyrido[2,1-b]quinazoline-6-carboxamide, 2-[3,5-bis(trifluoromethyl)phenyl]-N-[2-(dimethylamino)ethyl]-11-oxo] | 3.00 (≈ 5.74 µM) | 3.80 (≈ 7.27 µM) | –
14 | COc1cccc2c1C(=O)c1c(O)c3c(c(O)c1C2=O)C[C@@](O)(C(=O)CO)C[C@@H]3O[C@H]1C[C@H](N)[C@H](O)[C@H](C)O1 [Adriamycin, reference compound] | – | – | % ILS (COLON 26; COLON 26, 4 mg/kg i.p., days 5,9,14): +71%
15 | CN(C)CCNC(=O)c1cccn2c(=O)c3cc(-c4cccc(N(C)C)c4)ccc3nc12 [Example 21, 11H-Pyrido[2,1-b]quinazoline-6-carboxamide, N-[2-(dimethylamino)ethyl]-2-[3-(dimethylamino)phenyl]-11-oxo] | 0.50 (≈ 1.16 µM) | 0.20 (≈ 0.466 µM) | –
16 | CN(C)CCNC(=O)c1cccn2c(=O)c3ccc(-c4cccc(N)c4)cc3nc12 [Example 35, 11H-Pyrido[2,1-b]quinazoline-6-carboxamide, 3-(3-aminophenyl)-N-[2-(dimethylamino)ethyl]-11-oxo] | 0.40 (≈ 0.996 µM) | 0.50 (≈ 1.25 µM) | –
